Results as given in PMC11013010, “Serendipitous Identification of Azine Anticancer Agents Using a Privileged Scaffold Morphing Strategy” (Molecules, 2024).
Several values for one entry are separate records, joined by “and”; a condition that tells them apart may be missing. Equal entries are not always repeated.

What was measured:
[1] = Cytotoxicity assay (CellTiter Glo) on normal fibroblasts; format: cell-based, human; settings: human, FB789 normal fibroblast cells
Description: (§1) Cell-based assays were carried out on the normal human fibroblast FB789 cell line (kindly provided by Elena Dell’Ambra from IRCCS Istituto Dermopatico dell’Immacolata, Rome), on the Huh7 hepatocarcinoma cell line (kindly provided by Istituto Toscano Tumori, Core Research Laboratory, Siena, Italy), on the Caco-2 adenocarcinoma colorectal cell line (ATCC catalog. n. HTB-37), on the suspension H9 cell line (repository code ARP0001, NIBSC Centre for AIDS reagents) and on the adherent TZM-bl cell line (repository code ARP5011, NIBSC Centre for AIDS reagents).
The FB789 was cultured in Dulbecco’s Modified Eagle Medium (DMEM) and Ham’s F10 in a ratio of 50%, supplemented with 10% FBS, 2 mM L-glutamine, and 10,000 unit/mL penicillin/streptomycin.
(§2) The cytotoxicity of all investigated compounds was assayed in all cells lines as previously described. Briefly, confluent cells were treated with decreasing compound concentrations for 48h. The final DMSO concentration used was never greater than 0.5% v/v. Each experiment was performed in duplicate and repeated in two independent experiments. Cell viability was calculated using the CellTiter Glo 2.0 kit (Promega, Madison, WI, USA) and luminescence values signal obtained from cells treated with serial dilution of the compounds were measured through the GloMax® Discover Multi mode Microplate Reader (Promega) and elaborated with GraphPad PRISM software version 9.0 (La Jolla, San Diego, CA, USA). […] A non-toxic dose of each compound was used as the starting concentration in the antiviral activity assay.

[2] = Cytotoxicity assay (CellTiter Glo) on hepatocarcinoma cells; format: cell-based; settings: human, Huh7 hepatocarcinoma cells, Huh7 hepatocarcinoma
Description: as §1
(§3) High glucose Dulbecco’s Modified Eagle Medium with sodium pyruvate and L-glutamine (DMEM; Euroclone) was used to grow Huh-7 and TZM-bl. Minimum Essential Eagle Medium (EMEM; Euroclone) was used to propagate Caco-2. DMEM and EMEM were supplemented with 10% fetal bovine serum (FBS; Euroclone) and 1% penicillin/streptomycin (Pen/Strep, Euroclone). The growth medium with a lower concentration of FBS (1%) was used for viral propagation, cytotoxic and antiviral experiments in adherent cell lines. […] All cell lines were grown at 37 °C in a 5% CO2 atmosphere in a humidified incubator.
as §2

Huh7 cells = assay: as above; format: cell-based; settings: for TSI Huh7: ratio CC50 FB789 / CC50 Huh7
Description: as §1, §3, §2

[3] = Cytotoxicity assay (CellTiter Glo) on lymphoma cells; settings: human
H9 cells = assay: as above; settings: ratio CC50 FB789 / CC50 H9
[4] = Cytotoxicity assay (CellTiter Glo) on colon epithelial carcinoma cells; settings: human, Caco-2
Caco-2 cells = assay: as above; settings: for TSI Caco-2: ratio CC50 FB789 / CC50 Caco-2
[5] = Kinetic aqueous solubility; format: physicochemical; settings: Milli-Q water, 25 °C, water, kinetic from dmso stock; Mill-Q H2O, 3 h, RT; LOD 0.1 µg/mL
Description: For the quantitative analysis, a UV/LC-MS system was used. LC analysis was performed through an Agilent 1260 Infinity HPLC-DAD system (Agilent Technologies, Palo Alto, CA, USA), which constituted of a vacuum solvent degassing unit, a binary high-pressure gradient pump, and a UV detector, that was connected to an Agilent MSD 6130 system (Agilent Technologies, Palo Alto, CA, USA). The Agilent 1260 series mass spectra detection (MSD) single-quadrupole instrument was equipped with the orthogonal spray API-ES (Agilent Technologies, Palo Alto, CA, USA). Nitrogen was used as a nebulizing and drying gas. Chromatographic separation was performed using a Phenomenex Kinetex EVO C18-100 Å (150 × 4.6 mm, 5 μm particle size) at 25 °C and a gradient elution with a binary solution; eluent A was H2O, while eluent B consisted of ACN (both eluents were acidified with FA 0.1% v/v). […] UV detection was monitored at 254 nm. Spectra were acquired over the scan range m/z 100–1500 in positive mode.
DMSO-stock compounds’ solutions were diluted with Mill-Q H2O to a final concentration of 200 μM. The percentage of DMSO never exceeded 2% v/v. Samples were incubated under gentle shaking at 25 °C (RT) conditions for 3 h. The suspensions were filtered using a 0.45 µm nylon filter (Acrodisc, VWR, Radnor, PE, USA), and the amount of solubilized compound was determined with the HPLC-UV-MS method reported above. The quantification of the solubilized compound was made with the appropriate calibration curve realized with stock solutions in DMSO (0.1–100 µg/mL). The limit of detection (LOD) was quantified at 0.1 µg/mL.

[6] = Parallel artificial membrane permeability assay (PAMPA); format: in vitro ADME; settings: GI, pH 7.4, 5 h, RT
Description: To evaluate the apparent permeability of tested compounds, a DMSO stock solution [1 mM] of each derivative was prepared and then diluted 1:1 v/v with phosphate buffer (PBS 25 mM, pH 7.4) in order to make the donor solutions. According to the protocol already published, the gastrointestinal (GI) phospholipidic bilayer was mimed through adding a 1% w/v dodecane solution of phosphatidylcholine (PC). The sandwich plates were assembled and incubated for 5 h at RT. At the end time point, the amount of compound passed through the phospholipid bilayer was measured using HPLC-UV/MS. Finally, apparent permeability (Papp) and membrane retention (MR%) were calculated as previously described.

[7] = Metabolic stability assay with human liver microsomes; format: in vitro ADME; settings: 1 h, 37 °C, 50 µM
Description: A DMSO solution of selected compounds was incubated in the presence of phosphate buffer (25 mM, pH 7.4), human liver microsomal protein (200 µg/mL), and an NADPH regenerating system in MgCl2 (48 mM) at a final concentration of 50 µM. The metabolic reactions were conducted for 1 h under shaking at 37 °C and then stopped by adding cold acetonitrile (ACN). Centrifuging the mixtures at 5000 rpm, the supernatant was separated, dried under nitrogen flow, and finally suspended in methanol (MeOH). The amount of the parent drug and the metabolites were determined as previously described.

Plasma stability assay = format: in vitro ADME; settings: human plasma, 24 h, 37 °C; % of Time 0
Description: A DMSO solution of each compound was incubated at a final concentration of 100 µM at 37 °C under shaking with HEPES buffer (25 mM, 140 mM NaCl, pH 7.4) and human plasma. At time 0 and after 24 h, samples were collected from the reaction mixtures and treated with cold ACN. After centrifugation at 5000 rpm for 10 min, the supernatant was collected, and the amount of unmodified compound was determined using the HLPC-UV/MS method described above. Modified compounds were calculated using time zero as 100% of the unmodified compound.

[8] = triazines 1-9, read-out 48 h, Cell-Titer Glo
[9] = pyrimidines and pyridines, read out at 48 h, mean ± SD
[10] = 21a vs triazine 4, 33b vs triazine 6

Row | Compound | CC50 at 48 h [1, 8] | CC50 at 48 h ([2]; triazines 1-9, read-out 48 h) | TSI Huh7 (Huh7 cells; triazines 1-9) | CC50 at 48 h [3] | TSI H9 (H9 cells; triazines 1-9) | CC50 at 48 h [4] | TSI Caco-2 (Caco-2 cells; triazines 1-9) | CC50 at 48 h [1, 9] | CC50 at 48 h [2, 9] | TSI Caco-2 (Caco-2 cells; pyrimidines and pyridines) | TSI Huh7 (Huh7 cells; pyrimidines and pyridines) | solubility kinetic at 3 h [5] | MR (membrane retention) [6] | Papp at 5 h, 0.5 mM [6] | Metabolic Stability [7] | Plasmatic Stability (Plasma stability assay) | TSI H9 (H9 cells; pyrimidines and pyridines) | fold higher TSI than reference triazine, Huh7 (Huh7 cells; [10]) | fold higher TSI than reference triazine, Caco-2 (Caco-2 cells; [10])
1 | CC(=O)Nc1ccc(/C=N/Nc2nc(N3CCOCC3)nc(N3CCOCC3)n2)cc1 [Compound 2] | 134 ± 11 µM | > 200 µM | <0.7 | > 100 µM | <1.3 | > 200 µM | <0.7 | – | – | – | – | – | – | – | – | – | – | – | –
2 | Cc1cccc(/C=N/Nc2nc(N3CCOCC3)nc(N3CCOCC3)n2)c1 [Compound 3] | 250 ± 10 µM | 45 ± 10 µM | 5.6 | 74 ± 6.2 µM | 3.4 | 184 ± 11 µM | 1.4 | – | – | – | – | – | – | – | – | – | – | – | –
3 | CC(=O)Nc1ccc(/C=N/Nc2nc(Nc3ccc(F)cc3)nc(N3CCOCC3)n2)cc1 [Compound 5] | 27 ± 3 µM | 45 ± 6 µM | 0.6 | 30 ± 5 µM | 0.9 | 70 ± 6 µM | 0.4 | – | – | – | – | – | – | – | – | – | – | – | –
4 | Cc1cccc(/C=N/Nc2nc(Nc3ccc(F)cc3)nc(N3CCOCC3)n2)c1 [Compound 6] | 100 ± 8 µM | 47 ± 5 µM | 2.1 | > 100 µM | <1.0 | 22 ± 2 µM | 4.5 | – | – | – | – | – | – | – | – | – | – | – | –
5 | Oc1ccccc1/C=N/Nc1nc(Nc2ccc(F)cc2)nc(Nc2ccc(F)cc2)n1 [Compound 7] | 7 ± 2 µM | 2 ± 0.4 µM | 3.5 | 2 ± 1 µM | 3.5 | 0.8 ± 0.1 µM | 8.8 | – | – | – | – | – | – | – | – | – | – | – | –
6 | CC(=O)Nc1ccc(/C=N/Nc2nc(Nc3ccc(F)cc3)nc(Nc3ccc(F)cc3)n2)cc1 [Compound 8] | 57 ± 7 µM | > 200 µM | <0.3 | > 100 µM | <0.6 | > 200 µM | <0.3 | – | – | – | – | – | – | – | – | – | – | – | –
7 | Cc1cccc(/C=N/Nc2nc(Nc3ccc(F)cc3)nc(Nc3ccc(F)cc3)n2)c1 [Compound 9] | 50 ± 5 µM | > 200 µM | – | > 100 µM | – | 200 µM | – | – | – | – | – | – | – | – | – | – | – | – | –
8 | Oc1ccccc1/C=N/Nc1cc(N2CCOCC2)nc(N2CCOCC2)n1 [Compound 14a] | – | – | – | > 100 µM | – | 84 ± 7 µM | – | 30 ± 6 µM | 82 ± 6 µM | – | – | – | – | – | – | – | – | – | –
9 | Cc1cccc(/C=N/Nc2cc(N3CCOCC3)nc(N3CCOCC3)n2)c1 [Compound 14b] | – | – | – | 14 ± 7 µM | – | 11 ± 2 µM | – | 9 ± 1 µM | 8 ± 4 µM | 0.8 | – | – | – | – | – | – | – | – | –
10 | Oc1ccccc1/C=N/Nc1cc(Nc2ccc(F)cc2)nc(Nc2ccc(F)cc2)n1 [Compound 19a] | – | – | – | 31 ± 8 µM | – | 2 ± 1 µM | – | 14 ± 3 µM | 1 ± 0.3 µM | 7.0 | 14.0 | < 0.1 µg/mL | 20.99% and 20.91 ± 1.75% | 3.59 ± 0.21 ×10⁻⁶ cm/s | >99.9% | 86.64 ± 0.17% | 0.5 | – | –
11 | Cc1cccc(/C=N/Nc2cc(Nc3ccc(F)cc3)nc(Nc3ccc(F)cc3)n2)c1 [Compound 19b] | – | – | – | 48 ± 3.5 µM | – | 4 ± 1 µM | – | 61 ± 9 µM | 6 ± 1 µM | 15.3 | 10.2 | < 0.1 µg/mL | 27.42% and 27.42 ± 1.22% | 5.64 ± 0.59 ×10⁻⁶ cm/s | 98.31 ± 0.11% | >99.9% | 1.3 | – | –
12 | Oc1ccccc1/C=N/Nc1cc(Nc2ccc(F)cc2)nc(N2CCOCC2)n1 [Compound 21a] | – | – | – | 11 ± 2 µM | – | 2 ± 0.4 µM | – | 10 ± 5 µM | 3 ± 1 µM | 5.0 | 3.3 | < 0.1 µg/mL | 26.03 ± 6.17% | 4.8 ± 0.73 ×10⁻⁶ cm/s | >99.9% | 96.93 ± 2.73% | no selectivity | 2.8 fold | 1.4 fold
13 | Cc1cccc(/C=N/Nc2cc(Nc3ccc(F)cc3)nc(N3CCOCC3)n2)c1 [Compound 21b] | – | – | – | > 100 µM | – | 113 ± 4 µM | – | 95 ± 1 µM | 67 ± 23 µM | 0.8 | – | – | – | – | – | – | <1.0 | – | –
14 | Oc1ccccc1/C=N/Nc1cc(N2CCOCC2)nc(N2CCOCC2)c1 [Compound 27a] | – | – | – | 76 ± 4 µM | – | 29 ± 2 µM | – | 11 ± 3 µM | 44 ± 5 µM | – | – | – | – | – | – | – | – | – | –
15 | Cc1cccc(/C=N/Nc2cc(N3CCOCC3)nc(N3CCOCC3)c2)c1 [Compound 27b] | – | – | – | 50 ± 4 µM | – | 30 ± 2 µM | – | 81 ± 2 µM | 39 ± 3 µM | 2.7 | – | – | – | – | – | – | – | – | –
16 | Oc1ccccc1/C=N/Nc1cc(Nc2ccc(F)cc2)nc(Nc2ccc(F)cc2)c1 [Compound 33a] | – | – | – | 43 ± 9 µM | – | 12 ± 4 µM | – | 0.3 ± 0.3 µM | 18 ± 5 µM | 0.03 | 0.02 | – | – | – | – | – | 0.01 | – | –
17 | Oc1ccccc1/C=N/Nc1cc(Nc2ccc(F)cc2)nc(N2CCOCC2)c1 [Compound 38a] | – | – | – | 37 ± 2 µM | – | 19 ± 0.1 µM | – | 3 ± 1 µM | 24 ± 14 µM | 0.2 | 0.1 | – | – | – | – | – | 0.1 | – | –
